Laboratory results as given in ChEMBL document CHEMBL1201862, “PubChem BioAssay data set” (2004).
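Five compound concentrations were applied to cells in 96-well plates for 48 hours; endpoints were derived by simple linear interpolation of the resulting dose-response curve. Abbreviation: GI50, concentration required for 50% inhibition of growth.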 Activity calls are given as the source filed them. No stated cut-off is given here; in the data, active = GI50 up to about 1.1 µM and inactive = higher.

Columns and labels:
Test in all cases: inhibition of tumour cell growth, NCI panel, 48 h
786-0 = tested on: 786-0
A498 = tested on: A498
A549 = tested on: A549
ACHN = tested on: ACHN
BT-549 = tested on: BT-549
CAKI-1 = tested on: CAKI-1
CCRF-CEM = tested on: CCRF-CEM
COLO 205 = tested on: COLO 205
DU-145 = tested on: DU-145
EKVX = tested on: EKVX
HCC 2998 = tested on: HCC 2998
HCT-116 = tested on: HCT-116
HCT-15 = tested on: HCT-15
HOP-62 = tested on: HOP-62
HT-29 = tested on: HT-29
Hs-578T = tested on: Hs-578T
IGROV-1 = tested on: IGROV-1
K562 = tested on: K562
KM12 = tested on: KM12
LOX IMVI = tested on: LOX IMVI
M14 = tested on: M14
MCF7 = tested on: MCF7
MDA-MB-231 = tested on: MDA-MB-231
MDA-MB-435 = tested on: MDA-MB-435
MOLT-4 = tested on: MOLT-4
Malme-3M = tested on: Malme-3M
NCI-H226 = tested on: NCI-H226
NCI-H460 = tested on: NCI-H460
NCI-H522 = tested on: NCI-H522
NCI/ADR-RES = tested on: NCI/ADR-RES
OVCAR-3 = tested on: OVCAR-3
OVCAR-4 = tested on: OVCAR-4
OVCAR-5 = tested on: OVCAR-5
OVCAR-8 = tested on: OVCAR-8
PC-3 = tested on: PC-3
RPMI-8226 = tested on: RPMI-8226
RXF 393 = tested on: RXF 393
SF-268 = tested on: SF-268
SF-295 = tested on: SF-295
SK-MEL-28 = tested on: SK-MEL-28
SK-MEL-2 = tested on: SK-MEL-2
SK-MEL-5 = tested on: SK-MEL-5
SK-OV-3 = tested on: SK-OV-3
SN12C = tested on: SN12C
SNB-19 = tested on: SNB-19
SNB-75 = tested on: SNB-75
SR = tested on: SR
SW-620 = tested on: SW-620
T47D = tested on: T47D
TK-10 = tested on: TK-10
U-251 = tested on: U-251
UACC-257 = tested on: UACC-257
UACC-62 = tested on: UACC-62
UO-31 = tested on: UO-31

For NC(=O)NNc1nc(-c2ccccc2)cs1, the GI50 (786-0) was > 100 µM (inactive), the GI50 (A498) was > 100 µM (inactive) and the GI50 (A549) was > 100 µM (inactive). The GI50 (ACHN) was > 100 µM (inactive), the GI50 (BT-549) was > 100 µM (inactive) and the GI50 (CAKI-1) was > 100 µM (inactive). For the same compound, the GI50 (CCRF-CEM) was 47 µM (inactive), the GI50 (COLO 205) was > 100 µM (inactive) and the GI50 (DU-145) was > 100 µM (inactive). The GI50 (EKVX) was > 100 µM (inactive), the GI50 (HCC 2998) was > 100 µM (inactive) and the GI50 (HCT-116) was > 100 µM (inactive). For the same compound, the GI50 (HCT-15) was greater than 100 µM, the GI50 (HOP-62) was > 100 µM (inactive) and the GI50 (HT-29) was > 100 µM (inactive). For the same compound, the GI50 (Hs-578T) was > 100 µM (inactive), the GI50 (IGROV-1) was > 100 µM (inactive) and the GI50 (K562) was > 100 µM (inactive). For the same compound, the GI50 (KM12) was > 100 µM (inactive), the GI50 (LOX IMVI) was > 100 µM (inactive) and the GI50 (M14) was > 100 µM (inactive). For the same compound, the GI50 (MCF7) was > 100 µM (inactive), the GI50 (MDA-MB-231) was > 100 µM (inactive) and the GI50 (MDA-MB-435) was > 100 µM (inactive). The GI50 (MOLT-4) was > 100 µM (inactive), the GI50 (Malme-3M) was > 100 µM (inactive) and the GI50 (NCI-H226) was > 100 µM (inactive). The GI50 (NCI-H460) was > 100 µM (inactive), the GI50 (NCI-H522) was > 100 µM (inactive) and the GI50 (NCI/ADR-RES) was > 100 µM (inactive). For the same compound, the GI50 (OVCAR-3) was > 100 µM (inactive), the GI50 (OVCAR-4) was > 100 µM (inactive) and the GI50 (OVCAR-5) was > 100 µM (inactive). For the same compound, the GI50 (OVCAR-8) was > 100 µM (inactive), the GI50 (PC-3) was > 100 µM (inactive) and the GI50 (RPMI-8226) was > 100 µM (inactive). For the same compound, the GI50 (RXF 393) was > 100 µM (inactive), the GI50 (SF-268) was > 100 µM (inactive) and the GI50 (SF-295) was > 100 µM (inactive). The GI50 (SK-MEL-28) was > 100 µM (inactive), the GI50 (SK-MEL-2) was > 100 µM (inactive) and the GI50 (SK-MEL-5) was > 100 µM (inactive). For the same compound, the GI50 (SK-OV-3) was > 100 µM (inactive), the GI50 (SN12C) was > 100 µM (inactive) and the GI50 (SNB-19) was > 100 µM (inactive). For the same compound, the GI50 (SNB-75) was > 100 µM (inactive), the GI50 (SR) was > 100 µM (inactive) and the GI50 (SW-620) was > 100 µM (inactive). The GI50 (T47D) was > 100 µM (inactive), the GI50 (TK-10) was > 100 µM (inactive) and the GI50 (U-251) was > 100 µM (inactive). The GI50 (UACC-257) was > 100 µM (inactive), the GI50 (UACC-62) was > 100 µM (inactive) and the GI50 (UO-31) was > 100 µM (inactive).
